Common to all, as to settings: Compound concentration 10 µM
The target in experiment [1] is D(2) dopamine receptor (Homo sapiens) (UniProt P14416).
Description: PDSP Primary Binding target: DRD2 - Compounds are tested at 10 uM concentration, plate are incubated at room temperature in the dark for 90 minutes. Reaction are stopped by vacuum filtration onto 0.3% polyethyleneimine soaked filter mats using Filtermate harvester. Scintilation cocktail is then melted onto microwave-dried filters on a hot plate and the radio activity is counted in Microbia counter.
Experiment [2] deals with Translocator protein (Homo sapiens) (UniProt P30536).
Description: PDSP Primary Binding target: TSPO - Compounds are tested at 10 uM concentration, plate are incubated at room temperature in the dark for 90 minutes. Reaction are stopped by vacuum filtration onto 0.3% polyethyleneimine soaked filter mats using Filtermate harvester. Scintilation cocktail is then melted onto microwave-dried filters on a hot plate and the radio activity is counted in Microbia counter.
In experiment [3] the target is T1, Muscarinic acetylcholine receptor M1 (Homo sapiens) (UniProt P11229).
T1 sequence (whole entry): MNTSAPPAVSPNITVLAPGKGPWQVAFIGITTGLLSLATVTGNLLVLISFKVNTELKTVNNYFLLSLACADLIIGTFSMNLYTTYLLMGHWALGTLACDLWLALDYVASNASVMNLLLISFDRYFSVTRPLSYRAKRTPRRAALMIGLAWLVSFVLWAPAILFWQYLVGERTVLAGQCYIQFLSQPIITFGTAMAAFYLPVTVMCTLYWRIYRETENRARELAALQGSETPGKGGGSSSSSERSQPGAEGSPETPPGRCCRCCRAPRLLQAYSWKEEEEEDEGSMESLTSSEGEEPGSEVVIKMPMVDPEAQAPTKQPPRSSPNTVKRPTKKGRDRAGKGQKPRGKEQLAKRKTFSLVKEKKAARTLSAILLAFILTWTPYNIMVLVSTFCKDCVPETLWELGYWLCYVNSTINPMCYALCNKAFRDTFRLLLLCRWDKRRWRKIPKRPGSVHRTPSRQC
Description: PDSP Primary Binding target: CHRM1 - Compounds are tested at 10 uM concentration, plate are incubated at room temperature in the dark for 90 minutes. Reaction are stopped by vacuum filtration onto 0.3% polyethyleneimine soaked filter mats using Filtermate harvester. Scintilation cocktail is then melted onto microwave-dried filters on a hot plate and the radio activity is counted in Microbia counter.

The target in experiment [4] is D(1B) dopamine receptor (Homo sapiens) (UniProt P21918).
Description: PDSP Primary Binding target: DRD5 - Compounds are tested at 10 uM concentration, plate are incubated at room temperature in the dark for 90 minutes. Reaction are stopped by vacuum filtration onto 0.3% polyethyleneimine soaked filter mats using Filtermate harvester. Scintilation cocktail is then melted onto microwave-dried filters on a hot plate and the radio activity is counted in Microbia counter.
The target in experiment [5] is Mu-type opioid receptor (Homo sapiens) (UniProt P35372).
Description: PDSP Primary Binding target: OPRM1 - Compounds are tested at 10 uM concentration, plate are incubated at room temperature in the dark for 90 minutes. Reaction are stopped by vacuum filtration onto 0.3% polyethyleneimine soaked filter mats using Filtermate harvester. Scintilation cocktail is then melted onto microwave-dried filters on a hot plate and the radio activity is counted in Microbia counter.
The target in experiment [6] is T2, 5-hydroxytryptamine receptor 2C (Homo sapiens) (UniProt P28335).
T2 sequence (whole entry): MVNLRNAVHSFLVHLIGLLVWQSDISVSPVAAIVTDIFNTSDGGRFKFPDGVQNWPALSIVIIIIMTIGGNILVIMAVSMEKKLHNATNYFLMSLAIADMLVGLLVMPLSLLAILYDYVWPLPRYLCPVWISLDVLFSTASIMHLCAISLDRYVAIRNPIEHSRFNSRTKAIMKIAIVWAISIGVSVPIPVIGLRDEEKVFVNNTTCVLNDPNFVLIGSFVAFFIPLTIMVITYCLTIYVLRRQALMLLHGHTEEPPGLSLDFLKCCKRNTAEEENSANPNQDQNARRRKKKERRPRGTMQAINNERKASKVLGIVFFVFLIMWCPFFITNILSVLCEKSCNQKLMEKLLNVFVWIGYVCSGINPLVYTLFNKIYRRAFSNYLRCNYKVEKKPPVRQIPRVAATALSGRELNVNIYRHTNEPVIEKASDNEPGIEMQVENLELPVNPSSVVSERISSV
Description: PDSP Primary Binding target: HTR2C - Compounds are tested at 10 uM concentration, plate are incubated at room temperature in the dark for 90 minutes. Reaction are stopped by vacuum filtration onto 0.3% polyethyleneimine soaked filter mats using Filtermate harvester. Scintilation cocktail is then melted onto microwave-dried filters on a hot plate and the radio activity is counted in Microbia counter.

Experiment [7] concerns the target Beta-3 adrenergic receptor (Homo sapiens) (UniProt P13945).
Description: PDSP Primary Binding target: ADRB3 - Compounds are tested at 10 uM concentration, plate are incubated at room temperature in the dark for 90 minutes. Reaction are stopped by vacuum filtration onto 0.3% polyethyleneimine soaked filter mats using Filtermate harvester. Scintilation cocktail is then melted onto microwave-dried filters on a hot plate and the radio activity is counted in Microbia counter.
Experiment [8] deals with 5-hydroxytryptamine receptor 2B (Homo sapiens) (UniProt P41595).
Description: PDSP Primary Binding target: HTR2B - Compounds are tested at 10 uM concentration, plate are incubated at room temperature in the dark for 90 minutes. Reaction are stopped by vacuum filtration onto 0.3% polyethyleneimine soaked filter mats using Filtermate harvester. Scintilation cocktail is then melted onto microwave-dried filters on a hot plate and the radio activity is counted in Microbia counter.
The target in experiment [9] is 5-hydroxytryptamine receptor 1B (Homo sapiens) (UniProt P28222).
Description: PDSP Primary Binding target: HTR1B - Compounds are tested at 10 uM concentration, plate are incubated at room temperature in the dark for 90 minutes. Reaction are stopped by vacuum filtration onto 0.3% polyethyleneimine soaked filter mats using Filtermate harvester. Scintilation cocktail is then melted onto microwave-dried filters on a hot plate and the radio activity is counted in Microbia counter.
Experiment [10] deals with Sodium-dependent dopamine transporter (Homo sapiens) (UniProt Q01959).
Description: PDSP Primary Binding target: SLC6A3 - Compounds are tested at 10 uM concentration, plate are incubated at room temperature in the dark for 90 minutes. Reaction are stopped by vacuum filtration onto 0.3% polyethyleneimine soaked filter mats using Filtermate harvester. Scintilation cocktail is then melted onto microwave-dried filters on a hot plate and the radio activity is counted in Microbia counter.
The target of experiment [11] is 5-hydroxytryptamine receptor 2A (Homo sapiens) (UniProt P28223).
Description: PDSP Primary Binding target: HTR2A - Compounds are tested at 10 uM concentration, plate are incubated at room temperature in the dark for 90 minutes. Reaction are stopped by vacuum filtration onto 0.3% polyethyleneimine soaked filter mats using Filtermate harvester. Scintilation cocktail is then melted onto microwave-dried filters on a hot plate and the radio activity is counted in Microbia counter.
Experiment [12] addresses Beta-1 adrenergic receptor (Homo sapiens) (UniProt P08588).
Description: PDSP Primary Binding target: ADRB1 - Compounds are tested at 10 uM concentration, plate are incubated at room temperature in the dark for 90 minutes. Reaction are stopped by vacuum filtration onto 0.3% polyethyleneimine soaked filter mats using Filtermate harvester. Scintilation cocktail is then melted onto microwave-dried filters on a hot plate and the radio activity is counted in Microbia counter.
For experiment [13], the target named is Kappa-type opioid receptor (Homo sapiens) (UniProt P41145).
Description: PDSP Primary Binding target: OPRK1 - Compounds are tested at 10 uM concentration, plate are incubated at room temperature in the dark for 90 minutes. Reaction are stopped by vacuum filtration onto 0.3% polyethyleneimine soaked filter mats using Filtermate harvester. Scintilation cocktail is then melted onto microwave-dried filters on a hot plate and the radio activity is counted in Microbia counter.
Experiment [14] deals with Sigma intracellular receptor 2 (Homo sapiens) (UniProt Q5BJF2).
Description: PDSP Primary Binding target: TMEM97 - Compounds are tested at 10 uM concentration, plate are incubated at room temperature in the dark for 90 minutes. Reaction are stopped by vacuum filtration onto 0.3% polyethyleneimine soaked filter mats using Filtermate harvester. Scintilation cocktail is then melted onto microwave-dried filters on a hot plate and the radio activity is counted in Microbia counter.
Experiment [15] concerns the target Histamine H2 receptor (Homo sapiens) (UniProt P25021).
Description: PDSP Primary Binding target: HRH2 - Compounds are tested at 10 uM concentration, plate are incubated at room temperature in the dark for 90 minutes. Reaction are stopped by vacuum filtration onto 0.3% polyethyleneimine soaked filter mats using Filtermate harvester. Scintilation cocktail is then melted onto microwave-dried filters on a hot plate and the radio activity is counted in Microbia counter.
Experiment [16] addresses Sigma non-opioid intracellular receptor 1 (Homo sapiens) (UniProt Q99720).
Description: PDSP Primary Binding target: SIGMAR1 - Compounds are tested at 10 uM concentration, plate are incubated at room temperature in the dark for 90 minutes. Reaction are stopped by vacuum filtration onto 0.3% polyethyleneimine soaked filter mats using Filtermate harvester. Scintilation cocktail is then melted onto microwave-dried filters on a hot plate and the radio activity is counted in Microbia counter.
The target in experiment [17] is 5-hydroxytryptamine receptor 1D (Homo sapiens) (UniProt P28221).
Description: PDSP Primary Binding target: HTR1D - Compounds are tested at 10 uM concentration, plate are incubated at room temperature in the dark for 90 minutes. Reaction are stopped by vacuum filtration onto 0.3% polyethyleneimine soaked filter mats using Filtermate harvester. Scintilation cocktail is then melted onto microwave-dried filters on a hot plate and the radio activity is counted in Microbia counter.
In experiment [18] the target is D(1A) dopamine receptor (Homo sapiens) (UniProt P21728).
Description: PDSP Primary Binding target: DRD1 - Compounds are tested at 10 uM concentration, plate are incubated at room temperature in the dark for 90 minutes. Reaction are stopped by vacuum filtration onto 0.3% polyethyleneimine soaked filter mats using Filtermate harvester. Scintilation cocktail is then melted onto microwave-dried filters on a hot plate and the radio activity is counted in Microbia counter.
In experiment [19] the target is Beta-2 adrenergic receptor (Homo sapiens) (UniProt P07550).
Description: PDSP Primary Binding target: ADRB2 - Compounds are tested at 10 uM concentration, plate are incubated at room temperature in the dark for 90 minutes. Reaction are stopped by vacuum filtration onto 0.3% polyethyleneimine soaked filter mats using Filtermate harvester. Scintilation cocktail is then melted onto microwave-dried filters on a hot plate and the radio activity is counted in Microbia counter.
The target in experiment [20] is T3, Muscarinic acetylcholine receptor M5 (Homo sapiens) (UniProt P08912).
T3 sequence (whole entry): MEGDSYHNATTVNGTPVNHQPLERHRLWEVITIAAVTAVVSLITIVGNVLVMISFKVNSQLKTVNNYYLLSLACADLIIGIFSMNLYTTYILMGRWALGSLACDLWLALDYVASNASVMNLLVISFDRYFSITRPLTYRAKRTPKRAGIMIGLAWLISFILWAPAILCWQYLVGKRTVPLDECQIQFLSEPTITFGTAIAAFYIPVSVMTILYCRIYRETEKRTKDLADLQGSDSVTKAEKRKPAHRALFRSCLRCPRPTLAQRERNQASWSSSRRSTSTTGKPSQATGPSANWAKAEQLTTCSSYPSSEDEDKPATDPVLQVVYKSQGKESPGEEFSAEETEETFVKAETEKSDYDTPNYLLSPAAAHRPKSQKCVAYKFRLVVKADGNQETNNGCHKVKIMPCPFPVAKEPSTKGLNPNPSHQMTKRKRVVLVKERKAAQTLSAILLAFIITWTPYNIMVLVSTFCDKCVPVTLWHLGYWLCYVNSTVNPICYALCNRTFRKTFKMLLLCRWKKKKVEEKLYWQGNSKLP
Description: PDSP Primary Binding target: CHRM5 - Compounds are tested at 10 uM concentration, plate are incubated at room temperature in the dark for 90 minutes. Reaction are stopped by vacuum filtration onto 0.3% polyethyleneimine soaked filter mats using Filtermate harvester. Scintilation cocktail is then melted onto microwave-dried filters on a hot plate and the radio activity is counted in Microbia counter.

Experiment [21] has as its target T4, Alpha-2B adrenergic receptor (Homo sapiens) (UniProt P18089).
T4 sequence (whole entry): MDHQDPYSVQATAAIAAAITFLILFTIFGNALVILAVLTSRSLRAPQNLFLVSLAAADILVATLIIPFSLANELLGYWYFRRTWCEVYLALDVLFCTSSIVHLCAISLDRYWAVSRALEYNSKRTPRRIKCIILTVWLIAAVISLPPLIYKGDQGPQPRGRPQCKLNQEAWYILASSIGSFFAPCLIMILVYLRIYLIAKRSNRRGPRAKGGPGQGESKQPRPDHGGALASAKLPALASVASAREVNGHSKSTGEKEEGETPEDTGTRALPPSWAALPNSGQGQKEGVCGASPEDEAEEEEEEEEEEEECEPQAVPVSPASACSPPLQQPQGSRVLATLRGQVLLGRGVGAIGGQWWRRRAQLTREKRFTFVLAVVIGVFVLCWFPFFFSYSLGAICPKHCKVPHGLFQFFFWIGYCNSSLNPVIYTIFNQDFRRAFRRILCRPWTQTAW
Description: PDSP Primary Binding target: ADRA2B - Compounds are tested at 10 uM concentration, plate are incubated at room temperature in the dark for 90 minutes. Reaction are stopped by vacuum filtration onto 0.3% polyethyleneimine soaked filter mats using Filtermate harvester. Scintilation cocktail is then melted onto microwave-dried filters on a hot plate and the radio activity is counted in Microbia counter.

Sequence of Beta-2 adrenergic receptor (Homo sapiens) (P07550 whole entry, looked up): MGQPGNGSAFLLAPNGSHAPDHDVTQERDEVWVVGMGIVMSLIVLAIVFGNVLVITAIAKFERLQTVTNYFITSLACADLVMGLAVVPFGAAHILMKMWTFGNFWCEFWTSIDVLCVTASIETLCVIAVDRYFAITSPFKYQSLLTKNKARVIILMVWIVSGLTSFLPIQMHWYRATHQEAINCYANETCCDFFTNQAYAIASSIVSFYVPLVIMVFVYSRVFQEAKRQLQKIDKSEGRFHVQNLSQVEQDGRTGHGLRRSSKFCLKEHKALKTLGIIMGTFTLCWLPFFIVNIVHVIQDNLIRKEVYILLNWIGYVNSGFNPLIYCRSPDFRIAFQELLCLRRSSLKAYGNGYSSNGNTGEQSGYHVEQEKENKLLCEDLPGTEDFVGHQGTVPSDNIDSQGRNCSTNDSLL
Sequence of D(1B) dopamine receptor (Homo sapiens) (P21918 whole entry): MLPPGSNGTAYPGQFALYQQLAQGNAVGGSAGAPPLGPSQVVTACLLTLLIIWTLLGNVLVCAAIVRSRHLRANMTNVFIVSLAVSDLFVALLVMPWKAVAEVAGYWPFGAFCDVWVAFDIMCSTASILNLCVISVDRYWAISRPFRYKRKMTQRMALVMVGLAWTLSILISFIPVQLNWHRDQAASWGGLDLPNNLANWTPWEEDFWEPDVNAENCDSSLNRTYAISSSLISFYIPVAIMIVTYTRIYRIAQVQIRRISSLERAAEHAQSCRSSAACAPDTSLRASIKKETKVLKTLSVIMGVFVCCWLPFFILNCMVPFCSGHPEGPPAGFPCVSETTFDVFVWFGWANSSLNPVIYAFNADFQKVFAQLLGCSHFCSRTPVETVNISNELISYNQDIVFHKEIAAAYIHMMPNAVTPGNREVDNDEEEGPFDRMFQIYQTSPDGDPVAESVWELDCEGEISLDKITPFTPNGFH
Sequence of Beta-1 adrenergic receptor (Homo sapiens) (P08588 whole entry, looked up): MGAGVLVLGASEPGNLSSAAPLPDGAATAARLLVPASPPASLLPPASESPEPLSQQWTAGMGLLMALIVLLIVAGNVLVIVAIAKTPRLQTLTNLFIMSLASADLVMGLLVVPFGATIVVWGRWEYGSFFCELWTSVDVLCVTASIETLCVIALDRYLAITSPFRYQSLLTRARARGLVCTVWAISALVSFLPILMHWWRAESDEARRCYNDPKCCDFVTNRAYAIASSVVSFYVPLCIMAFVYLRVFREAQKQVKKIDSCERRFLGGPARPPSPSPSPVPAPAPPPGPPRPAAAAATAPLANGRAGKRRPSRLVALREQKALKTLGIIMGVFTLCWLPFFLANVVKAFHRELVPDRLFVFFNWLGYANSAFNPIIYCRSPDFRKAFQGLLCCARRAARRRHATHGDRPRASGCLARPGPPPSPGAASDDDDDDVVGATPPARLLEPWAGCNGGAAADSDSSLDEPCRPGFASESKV
Sequence of Sodium-dependent dopamine transporter (Homo sapiens) (Q01959 whole entry): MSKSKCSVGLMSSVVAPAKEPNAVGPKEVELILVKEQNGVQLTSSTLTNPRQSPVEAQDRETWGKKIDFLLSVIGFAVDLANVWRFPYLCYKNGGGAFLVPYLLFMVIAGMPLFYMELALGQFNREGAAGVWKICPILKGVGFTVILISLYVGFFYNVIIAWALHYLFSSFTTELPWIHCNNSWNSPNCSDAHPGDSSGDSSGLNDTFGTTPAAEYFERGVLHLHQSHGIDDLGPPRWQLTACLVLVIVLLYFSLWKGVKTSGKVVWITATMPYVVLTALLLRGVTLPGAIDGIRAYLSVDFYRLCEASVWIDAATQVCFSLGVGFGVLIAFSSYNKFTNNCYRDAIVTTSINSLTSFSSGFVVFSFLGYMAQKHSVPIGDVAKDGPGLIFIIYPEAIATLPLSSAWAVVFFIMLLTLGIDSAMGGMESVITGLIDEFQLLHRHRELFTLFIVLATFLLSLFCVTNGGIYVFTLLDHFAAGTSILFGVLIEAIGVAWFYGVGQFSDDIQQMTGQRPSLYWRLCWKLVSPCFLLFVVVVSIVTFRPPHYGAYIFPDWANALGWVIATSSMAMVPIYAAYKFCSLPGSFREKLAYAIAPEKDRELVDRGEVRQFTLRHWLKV
Sequence of Histamine H2 receptor (Homo sapiens) (P25021 whole entry): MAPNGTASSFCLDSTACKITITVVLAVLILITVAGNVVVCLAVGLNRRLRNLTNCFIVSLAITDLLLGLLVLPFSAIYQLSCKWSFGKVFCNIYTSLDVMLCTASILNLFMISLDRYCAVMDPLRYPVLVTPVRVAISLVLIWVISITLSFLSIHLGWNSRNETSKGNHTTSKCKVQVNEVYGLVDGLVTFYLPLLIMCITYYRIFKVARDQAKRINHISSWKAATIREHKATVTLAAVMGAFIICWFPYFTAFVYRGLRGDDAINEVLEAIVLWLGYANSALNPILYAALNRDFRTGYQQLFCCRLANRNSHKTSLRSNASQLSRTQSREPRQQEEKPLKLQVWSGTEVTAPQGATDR
Sequence of 5-hydroxytryptamine receptor 1B (Homo sapiens) (P28222 whole entry): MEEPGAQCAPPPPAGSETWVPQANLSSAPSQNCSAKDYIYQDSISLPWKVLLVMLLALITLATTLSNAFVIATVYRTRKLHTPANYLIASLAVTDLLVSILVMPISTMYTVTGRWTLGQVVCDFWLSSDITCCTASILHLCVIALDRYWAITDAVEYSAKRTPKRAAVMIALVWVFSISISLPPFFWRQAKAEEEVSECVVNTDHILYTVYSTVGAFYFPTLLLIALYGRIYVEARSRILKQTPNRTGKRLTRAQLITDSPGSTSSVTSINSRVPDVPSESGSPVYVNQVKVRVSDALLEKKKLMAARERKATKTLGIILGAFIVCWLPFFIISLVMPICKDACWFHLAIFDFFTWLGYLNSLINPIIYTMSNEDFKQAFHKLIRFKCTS
Sequence of 5-hydroxytryptamine receptor 2B (Homo sapiens) (P41595 whole entry): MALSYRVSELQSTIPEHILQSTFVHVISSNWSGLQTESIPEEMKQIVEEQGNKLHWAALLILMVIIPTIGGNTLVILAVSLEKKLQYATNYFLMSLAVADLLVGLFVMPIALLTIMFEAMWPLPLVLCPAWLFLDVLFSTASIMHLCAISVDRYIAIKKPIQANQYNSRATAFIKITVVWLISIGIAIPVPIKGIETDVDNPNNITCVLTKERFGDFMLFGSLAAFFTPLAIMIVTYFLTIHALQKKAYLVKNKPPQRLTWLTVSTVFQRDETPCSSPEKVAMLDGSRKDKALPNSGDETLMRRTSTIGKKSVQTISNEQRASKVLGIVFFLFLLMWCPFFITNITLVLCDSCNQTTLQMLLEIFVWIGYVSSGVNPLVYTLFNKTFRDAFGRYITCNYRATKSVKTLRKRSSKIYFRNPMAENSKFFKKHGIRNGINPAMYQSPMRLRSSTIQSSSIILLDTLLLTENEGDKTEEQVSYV
Sequence of Sigma intracellular receptor 2 (Homo sapiens) (Q5BJF2 whole entry): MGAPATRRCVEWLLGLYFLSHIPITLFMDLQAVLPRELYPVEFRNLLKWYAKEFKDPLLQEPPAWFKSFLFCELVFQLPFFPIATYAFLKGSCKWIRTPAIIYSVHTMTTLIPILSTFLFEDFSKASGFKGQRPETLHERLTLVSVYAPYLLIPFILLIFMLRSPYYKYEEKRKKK
Sequence of D(2) dopamine receptor (Homo sapiens) (P14416 whole entry): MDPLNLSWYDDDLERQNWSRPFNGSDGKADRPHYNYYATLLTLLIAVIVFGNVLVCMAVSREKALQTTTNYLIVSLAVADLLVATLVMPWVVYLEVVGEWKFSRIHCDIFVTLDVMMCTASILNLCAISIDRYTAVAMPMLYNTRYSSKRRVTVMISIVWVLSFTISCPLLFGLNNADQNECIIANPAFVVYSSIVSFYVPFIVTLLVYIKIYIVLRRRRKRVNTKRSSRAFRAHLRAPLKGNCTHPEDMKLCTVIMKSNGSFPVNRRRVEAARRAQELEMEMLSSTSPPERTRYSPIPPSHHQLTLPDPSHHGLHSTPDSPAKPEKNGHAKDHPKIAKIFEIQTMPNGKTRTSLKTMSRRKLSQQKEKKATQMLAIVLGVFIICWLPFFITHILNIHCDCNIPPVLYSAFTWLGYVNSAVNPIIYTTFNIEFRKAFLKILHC
Sequence of Sigma non-opioid intracellular receptor 1 (Homo sapiens) (Q99720 whole entry): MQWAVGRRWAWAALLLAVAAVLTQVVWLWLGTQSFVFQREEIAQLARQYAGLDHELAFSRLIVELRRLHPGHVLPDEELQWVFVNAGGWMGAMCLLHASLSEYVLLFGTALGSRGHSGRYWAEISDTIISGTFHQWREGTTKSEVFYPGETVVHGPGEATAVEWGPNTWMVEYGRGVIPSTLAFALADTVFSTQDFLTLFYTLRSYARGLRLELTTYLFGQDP
Sequence of Translocator protein (Homo sapiens) (P30536 whole entry): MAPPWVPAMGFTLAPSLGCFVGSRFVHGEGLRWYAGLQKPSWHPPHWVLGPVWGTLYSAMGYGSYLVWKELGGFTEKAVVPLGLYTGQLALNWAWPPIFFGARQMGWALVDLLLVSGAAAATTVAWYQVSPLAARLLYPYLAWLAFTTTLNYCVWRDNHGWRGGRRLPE
Sequence of D(1A) dopamine receptor (Homo sapiens) (P21728 whole entry): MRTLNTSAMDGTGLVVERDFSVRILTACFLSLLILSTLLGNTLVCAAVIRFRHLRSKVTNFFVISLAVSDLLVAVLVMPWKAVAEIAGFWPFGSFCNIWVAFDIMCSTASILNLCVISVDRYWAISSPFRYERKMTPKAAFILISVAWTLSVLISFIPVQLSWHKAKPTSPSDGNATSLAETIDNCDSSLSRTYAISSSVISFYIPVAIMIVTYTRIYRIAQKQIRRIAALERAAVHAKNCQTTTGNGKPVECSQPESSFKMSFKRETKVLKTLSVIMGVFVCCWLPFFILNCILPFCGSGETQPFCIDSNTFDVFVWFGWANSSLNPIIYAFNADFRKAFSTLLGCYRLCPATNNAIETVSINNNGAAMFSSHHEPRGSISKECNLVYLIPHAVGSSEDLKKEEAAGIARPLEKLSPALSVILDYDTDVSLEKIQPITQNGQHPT

For `COc1cccc([C@@H](C)NCCCc2ccccc2Cl)c1`, the inhibition in experiment [1] was 43.9%; in [2], 9.42%; in [3], -0.51%; in experiment [4], 8.31%; in experiment [5], 57.2%; in experiment [6], 91.8%. Moreover, the inhibition in [7] is 50.2%; in [8] it was 96.6%; in experiment [9], 22.4%; in [10] it was 31.1%; in experiment [11], 91.1%; in experiment [12] it was 15.9%. The inhibition in experiment [13] is 65.3%; in experiment [14] it was 96.3%; in [15] it was 72.6%; in experiment [16], 97.4%; in [17], 33.7%; in [18], 12.6%. The inhibition in experiment [19] is -2.01%; in [20] it was 9.55%; in experiment [21], 72.4%.

What is called inhibition is the change of the read-out against control, counted positive when it falls.

Values taken from ChEMBL document CHEMBL5442219.
